The source made the active and inactive calls. The calls are words filed in the database; no cut-off is given here.

Data set [1] has as its system Candida albicans. In words: Antifungal activity against Candida albicans at 500 ug/disk. Format: functional, organism-based.
For data set [2], the system named is Aspergillus flavus. In words: Antifungal activity against Aspergillus flavus at 500 ug/disk. It is filed as functional, organism-based.
The test system of data set [3] is Artemia. The data set can be described thus: Toxicity against brine shrimp at 500 ug/mL. It is filed as organism-based. The settings on record: in vivo.
Data set [4] has as its system Fusarium oxysporum. The data set can be described thus: Antifungal activity against Fusarium oxysporum at 500 ug/disk. It is filed as functional, organism-based.
The test system of data set [5] is Geotrichum candidum. The data set can be described thus: Antifungal activity against Geotrichum candidum at 500 ug/disk. It is filed as functional, organism-based.
Data set [6] relates to Sclerotinia sclerotiorum. The data set can be described thus: Antifungal activity against Sclerotinia sclerotiorum at 0.00011 uM/disk after 96 hrs. The settings on record: read-out: IZ. Format: functional.
Data set [7] relates to Helminthosporium. In words: Antifungal activity against Helminthosporium sativum at 500 ug/disk. Format: functional, organism-based.
Data set [8] relates to Aspergillus niger. The data set can be described thus: Antifungal activity against Aspergillus niger at 500 ug/disk. It is filed as functional, organism-based.
For data set [9], the system named is Sclerotinia sclerotiorum. In words: Antifungal activity against Sclerotinia sclerotiorum at 0.00034 uM/disk after 96 hrs. Format: functional. The settings on record: read-out: IZ.

In the case of `CC1=C[C@H]2C[C@H](C)[C@@H](O)[C@H](C)[C@H]2[C@H](/C=C(C)/C=C(C)/C=C/C(=O)O)/C1=C\C(=O)CO`, the result in data set [1], in [2], in data set [4], in [5], in [7] and in [8] was inactive. In addition, in data set [3], the Activity entry is “Non-toxic”. For the same compound, in data set [6], the zone of inhibition at 0.00011 µM amounted to 17 mm.

`CC1=C[C@H]2C[C@H](C)[C@@H](O)[C@H](C)[C@H]2[C@H](/C=C(C)/C=C(C)\C=C\C(=O)O)/C1=C\C(=O)CO`: the outcome in data set [1], in data set [2], in data set [4], in data set [5], in data set [7] and in data set [8] was inactive. Further, the zone of inhibition at 0.00034 µM in [9] came to 16 mm. In addition, in data set [3], the Activity entry is recorded as “Non-toxic”.

These data come from ChEMBL document CHEMBL1144091, “Isolation of two highly methylated polyketide derivatives from a yew-associated penicillium species” (J Nat Prod, 1999).
